The text below walks through data of patent publication US5719287A, “Intermediates for inhibitors of HIV protease and method of preparation thereof” (Eli Lilly and Company, priority 1995, dated 1998).

Where two headings read alike, the source gives them in different places.

The target of the assay is T1, HIV-1 protease (Human immunodeficiency virus type 1 group M subtype B, UniProt P04585).
T1 construct: Purified HIV-1 protease was obtained as described below; made in house; host or cells: E. coli K12 L507/pHP10D (NRRL B-18560)
The experiment in a line: biochemical. As to conditions: read-out: Fluorescence Assay IC50 (converted). The protocol: N^α -Biotin-[…]Ne-FITC)-OH
The purified peptide was labeled as follows with a fluorescent marker at the C-terminal end for use in the assay. N^α -Biotin-Gly-Ser-Gln-Asn-Tyr-Pro-lle-Val-Gly-Lys-OH (1.206 g, 0.936 mmoles) was dissolved in 100 mL of 0.1M sodium borate, pH 9.5 with stirring. Then, 3 g of fluorescein isothiocyanate (7.7 mmol) was dissolved in 15 mL dimethyl sulfoxide and the solution added to the reaction in 10 equal portions over the course of a two hour period. The reaction was allowed to proceed for a further one hour after the final addition had been made. The pH of the solution was adjusted to 3 with 5N HCl. A precipitate formed which was removed from the reaction by centrifugation.
Fluorescence HIV-1 Protease Inhibitor Assay Procedure.
To each well of a round bottom, 96-well plate is added 20 μl of the Enzyme Solution followed by 10 μl of the compound to be evaluated in 20% aqueous DMSO. Purified HIV-1 protease was obtained as described below. The solution is incubated for one hour at room temperature and then 20 μl of a solution of the substrate N^α -Biotin-[…]N^e -FITC)-OH, in MES-ALB buffer (1.5 μl/ml) is added to each well. The solutions are incubated for 16 hours at room temperature and thereafter to each well is added 150 μl of MES-ALB buffer.
To each well of a 96-well Pandex plate is added 25 μl of the Avidin Coated Beads Solution. Next, 25 μl of the diluted incubation solutions, described above, are added to each well of the Pandex plate. The solutions are mixed well and the plates are loaded into a Pandex® machine, washed, evacuated and read. Sample detection was performed by excitation at 485 nm and reading the resulting epifluorescence at 535 nm.
A culture of E. coli K12 L507/pHP10D was grown to mid-log phase at 32° C. in LB media containing 12.5 μg/ml tetracycline. The cultivation temperature was quickly elevated to 40° C. to induce gene expression, and the cells were allowed to grow for 2.5 hours at this temperature before the culture was quickly chilled on ice. The cells were centrifuged and the cell pellet was resuspended in 20 ml 50 mmol MES buffer (pH 6.0) containing 1 mmol EDTA, 1 mmol DTT, 1 mmol PMSF, and 10% glycerol (Buffer A). Cells were lysed by sonication using a Fischer Model 300 Dismembrator and a microtip probe. […] Enzymatic activity was measured by HPLC using the synthetic peptide SQNYPIV as described in Margolin et al., Biochem. Biophys. Res. Commun., 167, 554-560 (1990); the production of the pl peptide (SQNY) was measured.
Active fractions were pooled, made 1.2M in ammonium sulfate, and applied to a hexyl agarose column (2.0×18 cm) equilibrated in Buffer A containing 1.2M ammonium sulfate. The sample, in 125 ml (1.85 mg/ml), was loaded at a flow rate of 1 ml/min at 4° C. […] The column was then washed isocratically in Buffer A for 120 min. Active fractions were pooled, concentrated to 10 ml using an Amicon stirred cell with a YM-10 membrane, and applied at 1 ml/min to a MonoS cation exchange column (1.0×10 cm) equilibrated in Buffer A. After washing isocratically for 30 min, protease was eluted using a linear gradient of 0-0.45M NaCl in Buffer A over 40 min followed by an isocratic wash with Buffer A containing 0.45M NaCl over 30 min. Chromatography was performed at 25° C.
Pooled active fractions were concentrated to 200 ul using an Amicon stirred cell and a YM-10 membrane, and the protease was then applied to a Superose 6 size exclusion column equilibrated in Buffer A containing 0.1M NaCl. The column was washed isocratically in this buffer at a flow rate of 0.5 ml/min.

For the molecule `CC(C)(C)NC(=O)c1sccc1C[C@@H](O)[C@H](Cc1ccccc1)NC(=O)[C@H](CC(N)=O)NC(=O)c1ccc2ccccc2n1` [Example 41, [1S-(1R*, 4R*. 5S*) ]-N-(1-(2-amino-2-oxoethyl)-2-oxo-3-aza-4-phenylmethyl-5-hydroxy-6-(2-(1-t-butylamino-1-oxomethyl)thien-3-yl)hexyl)-2-quinolinyl carboxamide], the IC50 is 13 nM. On the same count and under the same terms, for `CC(C)(C)NC(=O)c1oc2ccccc2c1C[C@@H](O)[C@H](Cc1ccccc1)NC(=O)[C@H](CC(N)=O)NC(=O)c1ccc2ccccc2n1` [Example 42, [1S-(1R*, 4R*, 5S*)]-N-(1-(2-amino-2-oxoethyl)-2-oxo-3-aza-4-phenylmethyl-5-hydroxy-6-(2-(1-t-butylamino-1-oxomethyl)benzofur-3-yl)hexyl)-2-quinolinyl carboxamide] the value was 523 nM; for `CC(C)(C)NC(=O)c1ccccc1C[C@@H](O)[C@H](Cc1ccccc1)NC(=O)[C@H](CC(=O)O)NC(=O)c1ccc2ccccc2n1` [Example 43, [1S-(1R*, 4R*, 5S*)]-N-(1-(2-hydroxy-2-oxoethyl)-2-oxo-3-aza-4-phenylmethyl-5-hydroxy-6-(2-(1-t-butylamino-1-oxomethyl)phenyl)hexyl)-2-quinolinyl carboxamide], 2.13 nM; for `CC(C)(C)NC(=O)c1ccccc1C[C@@H](O)[C@H](Cc1ccccc1)NC(=O)[C@H](CCC(=O)O)NC(=O)c1ccc2ccccc2n1` [Example 44, [1S-(1R*, 4R*, 5S*)]-N-(1-(3-hydroxy-3-oxopropyl)-2-oxo-3-aza-4-phenylmethyl-5-hydroxy-6-(2-(1-t-butylamino-1-oxomethyl)phenyl)hexyl)-2-quinolinyl carboxamide], 2.08 nM.

`CC(C)(C)NC(=O)c1ccccc1C[C@@H](O)[C@H](Cc1ccccc1)NC(=O)[C@H](CC(=O)NCc1ccccn1)NC(=O)c1ccc2ccccc2n1` [Example 45, [1S-[1R*, 4R*, 5S*)]-N-(1-(2-(N-2-pyridylmethyl)amino)-2-oxoethyl]-2-oxo-3-aza-4-phenylmethyl-5-hydroxy-6-(2-(1-t-butylamino-1-oxomethyl)phenyl)hexyl)-2quinolinyl carboxamide]: the IC50 was 1.26 nM. Still for that read-out and setting: for `CC(C)(C)NC(=O)c1ccccc1C[C@@H](O)[C@H](Cc1ccccc1)NC(=O)[C@H](CC(=O)NCc1ncc[nH]1)NC(=O)c1ccc2ccccc2n1` [Example 46, [1S-(1R*, 4R*, 5S*)]-N-(1-(2-(N-2-imidazolylmethyl)amino)-2-oxoethyl)-2-oxo-3-aza-4-phenylmethyl-5-hydroxy-6-(2-(1-t-butylamino-1-oxomethyl)phenyl)hexyl)-2-quinolinyl carboxamide] the value was 1.88 nM; for `CC(C)(C)NC(=O)c1ccccc1C[C@@H](O)[C@H](Cc1ccccc1)NC(=O)[C@H](CC(=O)Nc1ccncc1)NC(=O)c1ccc2ccccc2n1` [Example 48, [1S-(1R*, 4R*, 5S*)]-N-(1-(2-(N-pyrid-4-yl)amino)-2-oxoethyl)-2-oxo-3-aza-4-phenylmethyl-5-hydroxy-6-(2-(1-t-butylamino-1-oxomethyl)phenyl)hexyl)-2-quinolinyl carboxamide], 1.16 nM.

Turning to `CC(C)(C)NC(=O)c1ccccc1C[C@@H](O)[C@H](Cc1ccccc1)NC(=O)[C@H](CC(=O)NCc1nc2ccccc2[nH]1)NC(=O)c1ccc2ccccc2n1` [Example 49, [1S-(1R*, 4R*, 5S*)]-N-(1-(2-(N-2-benzimidazolylmethyl)amino)-2-oxoethyl)-2-oxo-3-aza-4-phenylmethyl-5-hydroxy-6-(2-(1-t-butylamino-1-oxomethyl)phenyl)hexyl)-2-quinolinyl carboxamide], the IC50 was 0.676 nM. Consider `CC(C)(C)NC(=O)c1ccccc1C[C@@H](O)[C@H](Cc1ccccc1)NC(=O)[C@H](CC(=O)NNc1cccnc1)NC(=O)c1ccc2ccccc2n1` [Example 50, [1S-(1R*, 4R*, 5S*)]-N-(1-(2-(N-(N-3-pyridyl)amino)amino)-2-oxoethyl)-2-oxo-3-aza-4-phenylmethyl-5-hydroxy-6-(2-(1-t-butylamino-1-oxomethyl)phenyl)hexyl)-2-quinolinyl carboxamide], for which, where the note is “purified HIV-1 protease, MES-ALB buffer pH 5.5, 1 h preincubation, 16 h with substrate, room temperature, IC50 values for Examples 2-70 are standardized relative to Ex 1”, the IC50 is 0.228 nM. Take `CC(C)(C)NC(=O)c1ccccc1C[C@@H](O)[C@H](CC1CCCCC1)NC(=O)[C@H](CC(N)=O)NC(=O)c1ccc2ccccc2n1` [Example 51, [1S-(1R*, 4R*. 5S*)]-N-(1-(2-amino-2-oxoethyl)-2-oxo-3-aza-4-cyclohexylmethyl-5-hydroxy-6-(2-(1-t-butylamino-1-oxomethyl)phenyl)hexyl)-2-quinolinyl carboxamide]: the IC50 was 14.9 nM. Still for that read-out and setting: for `CC(C)(C)NC(=O)c1ccccc1C[C@@H](O)[C@H](Cc1ccccc1)NC(=O)[C@H](CC(N)=O)NC(=O)c1ccc2cccc(F)c2n1` [Example 52, [1S-(1R*, 4R*, 5S*)]-N-(1-(2-amino-2-oxoethyl)-2-oxo-3-aza-4-phenylmethyl-5-hydroxy-6-(2-(1-t-butylamino-1-oxomethyl)phenyl)hexyl)-8-fluoroquinolin-2-yl carboxamide] the value was 4.62 nM.

As to `CC(C)(C)NC(=O)c1ccccc1C[C@@H](O)[C@H](Cc1ccccc1)NC(=O)[C@H](CC(N)=O)NC(=O)c1cc(Cl)c2ccccc2n1` [Example 53, [1S-(1R*, 4R*, 5S*)]-N-(1-(2-amino-2-oxoethyl)-2-oxo-3-aza-4-phenylmethyl-5-hydroxy-6-(2-(1-t-butylamino-1-oxomethyl)phenyl)hexyl)-4-chloroquinolin-2-yl carboxamide], the IC50 was 1.2 nM. For the molecule `CC(C)(C)NC(=O)c1ccccc1C[C@@H](O)[C@H](Cc1ccccc1)NC(=O)[C@H](CCC(N)=O)NC(=O)c1ccc2ccccc2n1` [Example 54, [1S-(1R*, 4R*, 5S*)]-N-(1-(3-amino-3-oxopropyl)-2-oxo-3-aza-4-phenylmethyl-5-hydroxy-6-(2-(1-t-butylamino-1-oxomethyl)phenyl)hexyl)-2-quinolinyl carboxamide], the IC50 was 78.6 nM. `CC(C)(C)NC(=O)c1ccccc1C[C@@H](O)[C@H](Cc1ccccc1)NC(=O)[C@H](CC(N)=O)NC(=O)c1ccc2cc(Cl)ccc2n1` [Example 55, [1S-(1R*, 4R*, 5S*)]-N-(1-(2-amino-2-oxoethyl)-2-oxo-3-aza-4-phenylmethyl-5-hydroxy-6-(2-(1-t-butylamino-1-oxomethyl)phenyl)hexyl)-6-chloroquinolin-2-yl carboxamide]: the concentration for half-maximal inhibition (IC50) is 1.26 nM. Still for that read-out and setting: for `CC(C)(C)NC(=O)c1ccccc1C[C@@H](O)[C@H](Cc1ccccc1)NC(=O)[C@H](CCC(N)=O)NC(=O)c1ccc2ccccc2c1` [Example 56, [1S-(1R*, 4R*, 5S*)]-N-(1-(3-amino-3-oxopropyl) -2-oxo-3-aza-4-phenylmethyl-5-hydroxy-6-(2-(1-t-butylamino-1-oxomethyl)phenyl)hexyl)-2-naphthyl carboxamide] the value was 38.9 nM; for `CC(C)(C)NC(=O)c1ccccc1C[C@@H](O)[C@H](Cc1ccccc1)NC(=O)[C@H](CC(N)=O)NC(=O)NCc1ccccc1` [Example 57, [2R-(2R*, 3S*, 6S*)]-N-t-butyl-2-(2-hydroxy-3-phenylmethyl-4-aza-5-oxo-6-(2-amino-2-oxoethyl)-7-aza-8-oxo-8-(N-benzylamino)octyl)benzamide], 16.5 nM.
